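Interpolation was linear, between the two tested concentrations surrounding the appropriate level; five concentrations were tested over 48 hours in 96-well plates. TGI: total growth inhibition.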
Assays:
Experiment in all cases: inhibition of tumour cell growth, NCI panel, 48 h
CCRF-CEM leukemia = tested on: CCRF-CEM leukemia
K-562 leukemia = tested on: K-562 leukemia
RXF 393 renal = tested on: RXF 393 renal
KM12 colon = tested on: KM12 colon
NCI/ADR-RES ovarian = tested on: NCI/ADR-RES ovarian
NCI-H23 lung = tested on: NCI-H23 lung
DU-145 prostate = tested on: DU-145 prostate
OVCAR-3 ovarian = tested on: OVCAR-3 ovarian
UACC-257 melanoma = tested on: UACC-257 melanoma
T-47D breast = tested on: T-47D breast
UO-31 renal = tested on: UO-31 renal
MALME-3M melanoma = tested on: MALME-3M melanoma
SK-MEL-5 melanoma = tested on: SK-MEL-5 melanoma
SNB-75 CNS = tested on: SNB-75 CNS
SR leukemia = tested on: SR leukemia
BT-549 breast = tested on: BT-549 breast
SNB-19 CNS = tested on: SNB-19 CNS
CAKI-1 renal = tested on: CAKI-1 renal
HS 578T breast = tested on: HS 578T breast
ACHN renal = tested on: ACHN renal
HCT-15 colon = tested on: HCT-15 colon
HCT-116 colon = tested on: HCT-116 colon
UACC-62 melanoma = tested on: UACC-62 melanoma
A549 NSCLC = tested on: A549 NSCLC
OVCAR-4 ovarian = tested on: OVCAR-4 ovarian
TK-10 renal = tested on: TK-10 renal
SF-295 CNS = tested on: SF-295 CNS
HT29 colon = tested on: HT29 colon
MDA-MB-435 = tested on: MDA-MB-435
LOX IMVI melanoma = tested on: LOX IMVI melanoma
HOP-62 NSCLC = tested on: HOP-62 NSCLC
NCI-H226 lung = tested on: NCI-H226 lung
MCF7 breast = tested on: MCF7 breast
SF-268 CNS = tested on: SF-268 CNS
SN12C renal = tested on: SN12C renal
NCI-H522 lung = tested on: NCI-H522 lung
SK-MEL-28 melanoma = tested on: SK-MEL-28 melanoma
IGROV1 ovarian = tested on: IGROV1 ovarian
OVCAR-5 ovarian = tested on: OVCAR-5 ovarian
U251 CNS = tested on: U251 CNS
OVCAR-8 ovarian = tested on: OVCAR-8 ovarian
HL-60(TB) leukemia = tested on: HL-60(TB) leukemia
M14 melanoma = tested on: M14 melanoma
MDA-MB-231 breast = tested on: MDA-MB-231 breast
MOLT-4 leukemia = tested on: MOLT-4 leukemia
786-0 renal = tested on: 786-0 renal
SK-OV-3 ovarian = tested on: SK-OV-3 ovarian
NCI-H460 lung = tested on: NCI-H460 lung
EKVX NSCLC = tested on: EKVX NSCLC
MDA-N = tested on: MDA-N
PC-3 prostate = tested on: PC-3 prostate
RPMI-8226 leukemia = tested on: RPMI-8226 leukemia
HCC-2998 colon = tested on: HCC-2998 colon
COLO 205 colon = tested on: COLO 205 colon
SW-620 colon = tested on: SW-620 colon
SK-MEL-2 melanoma = tested on: SK-MEL-2 melanoma
A498 renal = tested on: A498 renal
SF-539 CNS = tested on: SF-539 CNS
HOP-92 NSCLC = tested on: HOP-92 NSCLC

SMILES: O=c1[nH]c(=O)n(C2CC(O)C(CO)O2)cc1NN=NCc1ccccc1 (configuration not stated)
- TGI (CCRF-CEM leukemia): > 100 µM
- TGI (K-562 leukemia): > 100 µM
- TGI (RXF 393 renal): > 100 µM
- TGI (KM12 colon): > 100 µM
- TGI (NCI/ADR-RES ovarian): > 100 µM
- TGI (NCI-H23 lung): > 100 µM
- TGI (DU-145 prostate): > 100 µM
- TGI (OVCAR-3 ovarian): > 100 µM
- TGI (UACC-257 melanoma): > 100 µM
- TGI (T-47D breast): > 100 µM
- TGI (UO-31 renal): > 100 µM
- TGI (MALME-3M melanoma): > 100 µM
- TGI (SK-MEL-5 melanoma): > 100 µM
- TGI (SNB-75 CNS): > 100 µM
- TGI (SR leukemia): > 100 µM
- TGI (BT-549 breast): > 100 µM
- TGI (SNB-19 CNS): > 100 µM
- TGI (CAKI-1 renal): > 100 µM
- TGI (HS 578T breast): > 100 µM
- TGI (ACHN renal): > 100 µM
- TGI (HCT-15 colon): > 100 µM
- TGI (HCT-116 colon): > 100 µM
- TGI (UACC-62 melanoma): > 100 µM
- TGI (A549 NSCLC): > 100 µM
- TGI (OVCAR-4 ovarian): > 100 µM
- TGI (TK-10 renal): > 100 µM
- TGI (SF-295 CNS): > 100 µM
- TGI (HT29 colon): > 100 µM
- TGI (MDA-MB-435): > 100 µM
- TGI (LOX IMVI melanoma): > 100 µM
- TGI (HOP-62 NSCLC): > 100 µM
- TGI (NCI-H226 lung): > 100 µM
- TGI (MCF7 breast): > 100 µM
- TGI (SF-268 CNS): > 100 µM
- TGI (SN12C renal): > 100 µM
- TGI (NCI-H522 lung): > 100 µM
- TGI (SK-MEL-28 melanoma): > 100 µM
- TGI (IGROV1 ovarian): > 100 µM
- TGI (OVCAR-5 ovarian): > 100 µM
- TGI (U251 CNS): > 100 µM
- TGI (OVCAR-8 ovarian): > 100 µM
- TGI (HL-60(TB) leukemia): > 100 µM
- TGI (M14 melanoma): > 100 µM
- TGI (MDA-MB-231 breast): > 100 µM
- TGI (MOLT-4 leukemia): > 100 µM
- TGI (786-0 renal): > 100 µM
- TGI (SK-OV-3 ovarian): > 100 µM
- TGI (NCI-H460 lung): > 100 µM
- TGI (EKVX NSCLC): > 100 µM
- TGI (MDA-N): > 100 µM
- TGI (PC-3 prostate): > 100 µM

SMILES: c1ccc(C(=NNc2nc3ccccc3[nH]2)c2ccccn2)nc1
- TGI (RPMI-8226 leukemia): 1.02 µM
- TGI (CCRF-CEM leukemia): 0.257 µM
- TGI (K-562 leukemia): > 100 µM
- TGI (KM12 colon): > 80.3 µM
- TGI (NCI/ADR-RES ovarian): 0.583 µM
- TGI (NCI-H23 lung): > 100 µM
- TGI (DU-145 prostate): > 100 µM
- TGI (OVCAR-3 ovarian): > 100 µM
- TGI (UACC-257 melanoma): 1.92 µM
- TGI (T-47D breast): > 100 µM
- TGI (UO-31 renal): 1.78 µM
- TGI (SK-MEL-5 melanoma): 1.69 µM
- TGI (SR leukemia): 0.271 µM
- TGI (BT-549 breast): 97.9 µM
- TGI (SNB-19 CNS): > 100 µM
- TGI (CAKI-1 renal): 2.07 µM
- TGI (HS 578T breast): > 100 µM
- TGI (HCC-2998 colon): 28.6 µM
- TGI (ACHN renal): 0.698 µM
- TGI (COLO 205 colon): 16.1 µM
- TGI (HCT-15 colon): > 100 µM
- TGI (SW-620 colon): > 100 µM
- TGI (HCT-116 colon): 10.2 µM
- TGI (A549 NSCLC): > 89.9 µM
- TGI (OVCAR-4 ovarian): > 100 µM
- TGI (SF-295 CNS): 35.4 µM
- TGI (HT29 colon): 12.1 µM
- TGI (MDA-MB-435): > 74 µM
- TGI (LOX IMVI melanoma): 27.8 µM
- TGI (HOP-62 NSCLC): 2.62 µM
- TGI (SK-MEL-2 melanoma): > 100 µM
- TGI (NCI-H226 lung): 0.448 µM
- TGI (A498 renal): 4.94 µM
- TGI (SF-539 CNS): 0.546 µM
- TGI (SF-268 CNS): > 55.3 µM
- TGI (NCI-H522 lung): 0.089 µM
- TGI (SK-MEL-28 melanoma): > 100 µM
- TGI (IGROV1 ovarian): 2.64 µM
- TGI (OVCAR-5 ovarian): 5.18 µM
- TGI (U251 CNS): > 69 µM
- TGI (OVCAR-8 ovarian): > 33.2 µM
- TGI (M14 melanoma): 1.84 µM
- TGI (MDA-MB-231 breast): > 53.6 µM
- TGI (MOLT-4 leukemia): 0.062 µM
- TGI (786-0 renal): > 100 µM
- TGI (SK-OV-3 ovarian): 0.828 µM
- TGI (NCI-H460 lung): > 100 µM
- TGI (EKVX NSCLC): 3.38 µM
- TGI (MDA-N): > 100 µM
- TGI (PC-3 prostate): 5.43 µM
- TGI (HOP-92 NSCLC): 0.182 µM

Source: PubChem BioAssay (NCI)
